Common to all, as to type: in vivo
What all share (conditions): no safener

The test system of data set [1] is Corn. Put plainly: Compatibility with crop plants, greenhouse, pre-emergence, visual scoring. The source says: Seeds or rhizome pieces of monocotyledonous and dicotyledonous weed plants were placed in sandy loam soil in cardboard pots and covered with soil. The active compounds (A) and (B), formulated as wettable powders or emulsion concentrates, were then applied to the surface of the covering soil as aqueous suspensions or emulsions in different dosages at a water application rate of 100 to 800 I/ha (converted).
After the treatment, the pots were placed in a greenhouse and kept under good growth conditions for the weeds. Visual scoring of the plant damage or emergence damage was carried out after the test plants had emerged after a test period of 3 to 4 weeks, in comparison to untreated controls. […] The combinations of 2-iodo-N—[(4-methoxy-6-methyl-1,3,5-triazin-2-yl)carbamoyl]benzenesulfonamide and compounds of the formula (I) mentioned in table A especially with the safeners of the compounds of the formulae S1-1, S1-9, S2-1 and S3-1 have very good synergistic herbicidal activity against harmful plants such as Sinapis alba, Chrysanthemum segetum, Avena sativa, Stellaria media, Echinochloa crus-galli, Lolium multiflorum, Setaria viridis, Abutilon theophrasti, Amaranthus retroflexus and Panicum miliaceum when applied by the pre-emergence method at an application rate of 100 g or less of active substance per hectare. […]

Data set [2] deals with Corn. Put plainly: Compatibility with crop plants, greenhouse, post-emergence, visual scoring. The procedure: (§1) Seeds or rhizome pieces of monocotyledonous and dicotyledonous weeds were placed in sandy loam soil in plastic pots, covered with soil and cultivated in a greenhouse under good growth conditions. Three weeks after sowing, the test plants were treated at the 2- to 4-leaf stage. The compounds according to the invention, formulated as wettable powders or as emulsion concentrates, were sprayed onto the green parts of the plants in various dosages at a water application rate of 100 to 800 I/ha (converted). After the test plants had been left to stand in the greenhouse for 3 to 4 weeks under optimum growth conditions, the effect of the preparations was scored visually in comparison to untreated controls.
(§2) In further greenhouse trials, seeds of a relatively large number of crop plants and weeds were placed into sandy loam soil and covered with soil. Some of the pots were immediately treated as described in section 1, the others were placed in a greenhouse until the plants had developed two to three true leaves and were then sprayed with various dosages of the herbicide/safener combinations according to the invention, as described in section 2. Four to five weeks after the application and standing time in the greenhouse, it was established by visual scoring that the herbicide/safener combinations tested, i.e. of 2-iodo-N-[(4-methoxy-6-methyl-1,3,5-triazin-2-yl)carbamoyl]benzenesulfonamide and the compounds of the formula (I) listed in table A, did, especially with the safeners of the compounds of the formulae S1-1, S1-6, S1-9, S2-1 and S3-1, benoxacor, furilazole, fluxofenim, not cause any damage to crop plants such as cotton, oilseed rape, sugar cane, sugar beet and also Gramineae crops such as barley, wheat, rye, millet, corn or rice when applied by the pre-emergence method or the post-emergence method.
(§3) The results of selected trials with respect to the crop plant compatibility are shown below in an exemplary manner using as an example safeners improving 2-iodo-N-[(4-methoxy-6-methyl-1,3,5-triazin-2-yl)carbamoyl]benzenesulfonamide (A-0) or its Na^+ salt (A-2) in various crop plants, i.e. wheat, barley and corn.

For another data set, the system named is Wheat. The description is as above. The procedure:
as §1, §2, §3

The test system of a further data set is Barley. Described as above. As to the method:
as §1, §2, §3

The mark [3] stands for this setting: active compound 12.5 g of ai/ha.
Where [4] appears, read: active compound 6.25 g of ai/ha.

Several values for one entry are separate records, joined by “and”; a condition that tells them apart may be missing. Equal values may be shown once.

In the case of `COc1nc(C)nc(NC(=O)NS(=O)(=O)c2ccccc2I)n1` [Compound A-0, 2-iodo-N-[(4-methoxy-6-methyl-1,3,5-triazin-2-yl)carbamoyl]benzenesulfonamide], the “Damage to the crop plant in %” value in the data set on Corn [1] (setting [3]) worked out at 65%; in the data set with Corn [1] (active compound 50 g of ai/ha), 60%; with Corn [2] (setting [4]), 20%; with Corn [2] (active compound 25 g of ai/ha), 50%; in the data set on Wheat (setting [4]), 20%; in the data set with Wheat (setting [3]), 20%. Also, the “Damage to the crop plant in %” value in the data set with Barley (setting [4]) was 20% and 10%; in the data set on Barley (setting [3]), 20%.

These data come from patent US20100317517A1, “HERBICIDE-SAFENER COMBINATION” (BAYER CROPSCIENCE AG, priority 2007, published 2010).
